Drawing on patent US20030232860A1, “Medicine comprising dicyanopyridine derivative” (priority 2000, published 2003), this text covers melting point for 40 compounds.

Counter-ions that a name gives are not always drawn. Bounds are passed on as bounds.

One may read the melting point as the temperature, or range, at which the solid turns liquid. The compound `N#Cc1c(N)nc(Cl)c(C#N)c1-c1ccccc1` [Example 9, 2-amino-6-chloro-4-phenylpyridine-3,5-dicarbonitrile] showed a melting point greater than 300 °C.

In turn, `COc1nc(N)c(C#N)c(-c2cccc(C#N)c2)c1C#N` [Example 49, 2-amino-4-(3-cyanophenyl)-6-methoxypyridine-3,5-dicarbonitrile] yielded a melting point of 298 to 299 °C.

The compound `CC(C)Oc1nc(N)c(C#N)c(-c2ccccc2F)c1C#N` [Example 18, 2-amino-4-(2-fluorophenyl)-6-isopropoxypyridine-3,5-dicarbonitrile] gave a melting point of 161 to 162 °C.

The compound `N#Cc1c(N)nc(O)c(C#N)c1-c1ccc(N)cc1` [Example 21, 2-amino-(4-aminophenyl)-6-hydroxypyridine-3,5-dicarbonitrile] yielded a melting point greater than 300 °C.

For `CSc1nc(N)c(C#N)c(-c2ccsc2)c1C#N` [Example 7, 2-amino-6-methylsulfanyl-4-(3-thienyl)pyridine-3,5-dicarbonitrile], the melting point lay in the range of 241 to 243 °C.

`Cl.Cl.N#Cc1c(NCCN)nc(NCCN)c(C#N)c1-c1ccccc1`: the melting point is greater than 280 °C.

For the compound `CSc1nc(O)c(C#N)c(-c2cccs2)c1C#N` [Example 23, 2-hydroxy-6-methylsulfanyl-4-thiophen-2-ylpyridine-3,5-dicarbonitrile], the melting point is 245 °C (dec.).

For the compound `COc1nc(OCCO)c(C#N)c(-c2ccccc2)c1C#N` [Example 33, 2-(2-hydroxyethoxy)-6-methoxy-4-phenylpyridine-3,5-dicarbonitrile], the melting point lay in the range of 170 to 172 °C.

Consider `COc1nc(NC(=O)c2ccco2)c(C#N)c(-c2ccccc2F)c1C#N` [Example 415, N-[3,5-dicyano-4-(2-fluorophenyl)-6-methoxypyridin-2-yl]furan-2-carboxamide], for which the melting point lay within 222 to 223 °C.

For `COc1nc(N)c(C#N)c(-c2ccc(NS(C)(=O)=O)cc2)c1C#N` [Example 38, N-[4-(2-amino-3,5-dicyano-6-methoxypyridin-4-yl)phenyl]methanesulfonamide], the melting point fell in the range of 265 to 266 °C.

Compound `CCC(=O)N(C(=O)CC)c1nc(OC)c(C#N)c(-c2ccccc2F)c1C#N` [Example 73, 2-dipropanoylamino-4-(2-fluorophenyl)-6-methoxypyridine-3,5-dicarbonitrile] yielded a melting point of 160 to 161 °C.

As to `COc1nc(N)c(C#N)c(-c2cc[nH]c2)c1C#N` [Example 66, 2-amino-6-methoxy-4-(1H-pyrrol-3-yl)pyridine-3,5-dicarbonitrile], the melting point was 235 to 237 °C.

`COc1nc(NC(=O)CCc2ccccc2)c(C#N)c(-c2ccccc2F)c1C#N` [Example 402, N-[3,5-dicyano-4-(2-fluorophenyl)-6-methoxypyridin-2-yl]-3-phenylpropionamide] returned a melting point of 183 to 184 °C.

The compound `COc1nc(NC(=O)c2ccccn2)c(C#N)c(-c2ccccc2F)c1C#N` [Example 412, N-[3,5-dicyano-4-(2-fluorophenyl)-6-methoxypyridin-2-yl]pyridine-2-carboxamide] gave a melting point of 219 to 220 °C.

`CSc1nc(N)c(C#N)c(C)c1C#N` [Example 75]: the melting point lay within 246 to 247 °C.

`COc1nc(NC(=O)c2cccs2)c(C#N)c(-c2ccccc2F)c1C#N` [Example 414, N-[3,5-dicyano-4-(2-fluorophenyl)-6-methoxypyridin-2-yl]thiophene-2-carboxamide] gave a melting point of 208 to 209 °C.

In turn, `COc1nc(NC(=O)C2CC2)c(C#N)c(-c2ccccc2F)c1C#N` [Example 70, N-[3,5-dicyano-4-(2-fluorophenyl)-6-methoxypyridin-2-yl] cyclopropanecarboxamide] had a melting point of 203 to 204 °C.

As to `N#Cc1c(N)nc(Oc2ccccc2)c(C#N)c1-c1ccccc1` [Example 194], the melting point was 202 °C.

Take `N#Cc1c(N)nc(Br)c(C#N)c1-c1ccccc1` [Example 178]: the melting point is greater than 300 °C.

For the compound `COc1nc(N)c(C#N)c(C2CCCNC2)c1C#N` (stereo not shown), the melting point is 176 to 178 °C.

As for `COc1nc(N)c(C#N)c(-c2ccc(N)cc2)c1C#N.Cl.O` (hydrate or solvate) [Example 20, 2-amino-(4-aminophenyl)-6-methoxypyridine-3,5-dicarbonitrile monohydrochloride monohydrate], the melting point is greater than 300 °C.

For the compound `COc1nc(NC(=O)COC(C)=O)c(C#N)c(-c2ccccc2F)c1C#N` [Example 397, [3,5-dicyano-4-(2-fluorophenyl)-6-methoxypyridin-2-ylcarbamoyl]methyl acetate], the melting point was 151 to 153 °C.

For `COCC(=O)Nc1nc(OC)c(C#N)c(-c2c(F)cccc2F)c1C#N` [Example 62, N-[3,5-dicyano-4-(2,6-difluorophenyl)-6-methoxypyridin-2-yl]-2-methoxyacetamide], the melting point was in the range of 181 to 182 °C.

In turn, `COc1nc(N(C)C)c(C#N)c(-c2ccccc2)c1C#N` [Example 361] came in with a melting point of 179 to 180 °C.

As for `COc1nc(NC(C)=O)c(C#N)c(-c2cccs2)c1C#N` [Example 19, N-(3,5-dicyano-6-methoxy-4-thiophen-2-ylpyridin-2-yl)acetamide], the melting point lay in the range of 230 to 233 °C.

For the compound `COCC(=O)Nc1nc(OCC(F)F)c(C#N)c(-c2ccccc2F)c1C#N` (hydrate or solvate) [Example 61, N-[3,5-dicyano-6-(2,2-difluoroethoxy)-4-(2-fluorophenyl)pyridin-2-yl]-2-metho xyacetamide], the melting point was in the range of 108 to 109 °C.

Compound `COc1nc(N)c(C#N)c(-c2c[nH]c3ccccc23)c1C#N` [Example 170] yielded a melting point greater than 300 °C.

Regarding `CCOc1nc(N)c(C#N)c(-c2ccccc2)c1C#N` [Example 179], the melting point was in the range of 233 to 234 °C.

For the compound `COc1nc(N)c(C#N)c(-c2ccc3cccnc3c2)c1C#N` (as salt: HCl) [Example 172, 2-amino-6-methoxy-4-quinolin-7-ylpyridine-3,5-dicarbonitrile], the melting point was 245 to 254 °C (dec.).

In turn, `CS(=O)(=O)c1nc(N)c(C#N)c(-c2cccs2)c1C#N` [Example 44, 2-amino-6-methanesulfonyl-4-thiophen-2-ylpyridine-3,5-dicarbonitrile] showed a melting point of 233 to 235 °C.

On to `CCN(CC)CCOc1ccc(-c2c(C#N)c(N)nc(OC)c2C#N)cc1.Cl` (hydrate or solvate), for which the melting point lay within 132 to 133 °C.

In turn, `COc1nc(NC(=O)C(F)(F)F)c(C#N)c(-c2ccccc2F)c1C#N` [Example 69, N-[3,5-dicyano-4-(2-fluorophenyl)-6-methoxypyridin-2-yl]-2,2,2-trifluoroacetamide] yielded a melting point of 142 to 145 °C.

For `COc1nc(O)c(C#N)c(-c2ccccc2)c1C#N` [Example 25, 2-hydroxy-6-methoxy-4-phenylpyridine-3,5-dicarbonitrile], the melting point was 255 to 257 °C (dec.).

With `COCC(=O)Nc1nc(OC)c(C#N)c(-c2ccccc2F)c1C#N` [Example 60, N-[3,5-dicyano-4-(2-fluorophenyl)-6-methoxypyridin-2-yl]-2-methoxyacetamide], the melting point fell in the range of 168 to 169 °C.

Compound `COc1nc(N)c(C#N)c(-c2ccc[nH]2)c1C#N` [Example 169] had a melting point of 198 to 199 °C.

For `N#Cc1c(N)nc(Oc2ccccc2CN)c(C#N)c1-c1ccccc1` (as salt: HCl) [Example 201, 2-amino-6-(2-aminomethylphenoxy)-4-phenylpyridine-3,5-dicarbonitrile], the melting point was greater than 300 °C.

Regarding `COc1nc(N)c(C#N)c(-c2cnc(N)s2)c1C#N` (as salt: chloride) [Example 67, 2-amino-4-(2-aminothiazol-5-yl)-6-methoxypyridine-3,5-dicarbonitrile mono hydro chloride], the melting point is 240 to 242 °C (dec.).

Consider `COCCC(=O)Nc1nc(OC)c(C#N)c(-c2ccccc2F)c1C#N` [Example 404, N-[3,5-dicyano-4-(2-fluorophenyl)-6-methoxypyridin-2-yl]-3-methoxypropionamide], for which the melting point lay within 115 to 116 °C.

For `N#Cc1c(N)nc(SCc2ccccc2)c(C#N)c1Cc1ccccc1` [Example 437], the melting point lay in the range of 188 to 189 °C.

Regarding `COc1nc(NC(=O)c2ccc3ccccc3c2)c(C#N)c(-c2ccccc2F)c1C#N` [Example 411, N-[3,5-dicyano-4-(2-fluorophenyl)-6-methoxypyridin-2-yl]naphthalene-2-carbo xamide], the melting point was 227 to 230 °C.
